Test system: Acinetobacter baumannii ATCC 17978
Assay: Antimicrobial susceptibility testing: 90% growth inhibitory concentration (IC90) determination
Assay type: cell-based
Conditions: Acinetobacter baumannii, ATCC17978, 16 h, 90% growth inhibitory concentration; Acinetobacter baumannii ATCC17978; Iso-Sensitest broth, OD 600 nm over 16h; read-out: ATCC17978 IC90
Outline: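 Compounds serially twofold diluted (e.g. 50 to 0.097 μM final) in Iso-Sensitest broth, inoculated at ~5×10^(5) CFU/ml, incubated at 35±2° C. OD600 read every 20 minutes over 16h. IC90 taken as concentration inhibiting 90% of growth during logarithmic phase.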

Going from `CCc1cc(Nc2nccn3c(-c4ccc(OC)c(F)c4F)cnc23)ccc1C(=O)NCC1CCN(C(C)(C)C(=O)O)CC1` [Example 562, 2-(4-((4-((3-(2,3-difluoro-4-methoxyphenyl)imidazo[1,2-a]pyrazin-8-yl)amino)-2-ethylbenzamido)methyl)piper-idin-1-yl)-2-methylpropanoic acid compound with formic acid] to `COc1ccc(-c2cnc3c(Nc4ccc(C(=O)N(C)CCN5CCNCC5)c(C)c4)nccn23)c(F)c1F` [Example 61, 4-((3-(2,3-difluoro-4-methoxyphenyl)imidazo [1,2-a]pyrazin-8-yl)amino)-N,2-dimethyl-N-(2-(piperazin-1-yl)ethyl)benzamide], the IC90 falls from 0.32 µM to 0.19 µM (1.7-fold).

Compared with `COc1ccc(-c2cnc3c(Nc4ccc(C(=O)NCC5CCNCC5)c(C)c4)nccn23)cc1` [Example 211, 4-[[3-(4-methoxyphenyl)imidazo[1,2-a]pyrazin-8-yl]amino]-2-methyl-N-(piperidin-4-ylmethyl)benzamide;hydrochlo-ride], `COc1ccc(-c2cnc3c(Nc4ccc(C(=O)NCCN5CCNCC5)c(Cl)c4)nccn23)cc1F` [Example 188, 2-chloro-4-[[3-(3-fluoro-4-methoxyphenyl)imidazo[1,2-a]pyrazin-8-yl]amino]-N-(2-piperazin-1-ylethyl)benzamide;hydrochlo-ride] is 2.4-fold lower in IC90: 0.64 µM for the first, 0.27 µM for the second.

First: Cc1cc(Nc2nccn3c(-c4ccc(Cl)c(F)c4F)cnc23)ccc1C(=O)N(C)CCN [Example 241, N-(2-aminoethyl)-4-[[3-(4-chloro-2,3-difluorophenyl)imidazo[1,2-a]pyrazin-8-yl]amino]-N,2-dimethylbenzamide;hydrochlo-ride]
Second: COc1ccc(-c2cnc3c(Nc4ccc(C(=O)N(C)CCCC(=O)O)c(C)c4)nccn23)cc1F [Example 174, 4-[[4-[[3-(3-fluoro-4-methoxyphenyl)imidazo[1,2-a]pyrazin-8-yl]amino]-2-methylbenzoyl]-methylamino]butanoic acid]
The IC90 of the first is 4.7-fold lower: 1.9 µM for the first, 8.9 µM for the second.

`N#CCOc1ccc(-c2cnc3c(Nc4ccc(C(=O)NCc5cc[nH]c(=O)c5)c(Cl)c4)nccn23)c(F)c1F` [Example 85, 2-chloro-4-[[3-[4-(cyanomethoxy)-2,3-difluoro-phenyl]imidazo[1,2-a]pyrazin-8-yl]amino]-N-[(2-oxo-1H-pyridin-4-yl)methyl]benzamide] was tested, and the IC90 was 0.07 µM.

Reference: patent US20230012368A1 (Hoffmann-La Roche Inc., priority 2018, published 2023)
